Laboratory results published in patent US8324245B2, “Quinoline derivative and quinazoline derivative inhibiting self-phosphorylation of hepatocytus proliferator receptor, and medicinal composition containing the same” (Kyowa Hakko Kirin Co., Ltd., priority 2001, dated 2012).

Biological target: T1, met (HGF receptor) in human gastric cancer cells MKN45 (Homo sapiens, UniProt P08581)
T1 construct: endogenous in cells; host or cells: MKN45 human gastric cancer cells
Test: Inhibitory activity against met-autophosphorylation using ELISA method (2), MKN45 cells, HGF-independent
Type: cell-based
How it was run: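 Met autophosphorylation was read by sandwich ELISA: phosphotyrosine capture (PY20), anti-HGF receptor detection, peroxidase read-out at 450 nm. Lysates came from MKN45 gastric cancer cells kept in 0.1% FCS RPMI and treated 1 h at 37 °C with test compound, with no added HGF.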

T1 sequence (P08581 25-1390): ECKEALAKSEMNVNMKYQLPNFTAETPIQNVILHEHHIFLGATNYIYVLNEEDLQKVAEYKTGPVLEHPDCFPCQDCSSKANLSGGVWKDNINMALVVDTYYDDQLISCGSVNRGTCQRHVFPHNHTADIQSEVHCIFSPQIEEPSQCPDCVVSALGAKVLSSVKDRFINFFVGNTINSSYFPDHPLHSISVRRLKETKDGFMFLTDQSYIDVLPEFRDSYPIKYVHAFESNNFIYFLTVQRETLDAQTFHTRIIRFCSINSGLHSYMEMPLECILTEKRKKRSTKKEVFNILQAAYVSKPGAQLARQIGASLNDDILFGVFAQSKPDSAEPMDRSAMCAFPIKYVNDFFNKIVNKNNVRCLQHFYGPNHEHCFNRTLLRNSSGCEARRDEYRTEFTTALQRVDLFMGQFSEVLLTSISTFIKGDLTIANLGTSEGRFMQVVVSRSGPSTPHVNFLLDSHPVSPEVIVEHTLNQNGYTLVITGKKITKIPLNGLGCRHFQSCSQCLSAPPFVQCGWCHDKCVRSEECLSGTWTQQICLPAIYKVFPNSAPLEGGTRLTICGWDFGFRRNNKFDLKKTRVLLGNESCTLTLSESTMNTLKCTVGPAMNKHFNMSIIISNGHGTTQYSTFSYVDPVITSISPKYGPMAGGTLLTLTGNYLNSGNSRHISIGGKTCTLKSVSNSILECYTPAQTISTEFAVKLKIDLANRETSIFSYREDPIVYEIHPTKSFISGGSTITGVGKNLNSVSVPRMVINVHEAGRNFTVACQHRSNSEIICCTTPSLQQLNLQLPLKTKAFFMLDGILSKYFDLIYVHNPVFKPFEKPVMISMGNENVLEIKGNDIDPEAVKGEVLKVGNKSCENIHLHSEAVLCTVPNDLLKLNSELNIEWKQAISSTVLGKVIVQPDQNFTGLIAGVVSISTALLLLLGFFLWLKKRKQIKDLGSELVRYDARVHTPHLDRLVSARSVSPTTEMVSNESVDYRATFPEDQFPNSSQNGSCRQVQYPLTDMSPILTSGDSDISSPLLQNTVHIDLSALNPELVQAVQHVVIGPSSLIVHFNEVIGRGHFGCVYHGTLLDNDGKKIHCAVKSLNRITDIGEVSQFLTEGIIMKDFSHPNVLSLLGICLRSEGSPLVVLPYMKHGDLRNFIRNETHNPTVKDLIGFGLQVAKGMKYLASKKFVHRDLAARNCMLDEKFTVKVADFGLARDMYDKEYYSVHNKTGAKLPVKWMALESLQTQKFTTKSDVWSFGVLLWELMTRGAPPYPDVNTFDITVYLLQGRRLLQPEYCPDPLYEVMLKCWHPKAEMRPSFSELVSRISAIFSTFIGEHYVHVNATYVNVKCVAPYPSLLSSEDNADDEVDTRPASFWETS

Row | SMILES | IC50 [nM]
1 | COc1cc2nccc(Oc3ccc(NC(=O)NC(=O)Nc4ccccc4C(F)(F)F)cc3)c2cc1OC [Example 240, N-[2-(trifluoromethyl)phenyl]-({[4-(6,7-dimethoxyquinolin-4-yloxy)anilino]carbonyl}amino)methan-amide] | 2740
2 | COc1cc2nccc(Oc3ccc(NC(=S)NC(=O)Cc4ccccc4C(F)(F)F)c(F)c3)c2cc1OC [Example 200, 1-[4-(6,7-dimethoxyquinolin-4-yloxy)-2-fluorophenyl]-3-[2-(2-trifluoromethylphenyl)acetyl]-thiourea] | 305
3 | COc1cc2nccc(Oc3ccc(NC(=O)NC(=O)Cc4ccccc4C(F)(F)F)c(F)c3)c2cc1OC [Example 136, 1-[4-(6,7-dimethoxyquinolin-4-yloxy)-2-fluorophenyl]-3-[2-(2-trifluoromethylphenyl)acetyl]urea] | 342
4 | COc1cc2nccc(Oc3ccc(NC(=O)NC(=O)CN4CCC(Cc5ccccc5)CC4)cc3F)c2cc1OC [Example 120, 1-[2-(4-benzyl-piperidin-1-yl)acetyl]-3-[4-(6,7-dimethoxyquinolin-4-yloxy)-3-fluorophenyl]urea] | 1570
5 | COc1cc2nccc(Oc3ccc(NC(=S)NC(=O)CC4CCCCC4)c(F)c3)c2cc1OC [Example 166, 1-(2-cyclohexylacetyl)-3-[4-(6,7-dimethoxy-quinolin-4-yloxy)-2-fluorophenyl]thiourea] | 318
6 | COc1cc2nccc(Oc3ccc(NC(=S)NC(=O)CCSC)cc3F)c2cc1OC [Example 147, 1-[4-(6,7-dimethoxyquinolin-4-yloxy)-3-fluorophenyl]-3-(3-methylsulfanylpropionyl)thiourea] | 1170
7 | COc1cc2nccc(Oc3ccc(NC(=O)CC(=O)Nc4cccnc4)cc3)c2cc1OC [Example 227, N-[4-(6,7-dimethoxyquinolin-4-yloxy)phenyl]-N′-pyridin-3-ylmalonamide] | 4360
8 | COc1cc2nccc(Oc3ccc(NC(=O)NC(=O)CSc4ccccc4)cc3)c2cc1OC [Example 129, 1-[4-(6,7-dimethoxyquinolin-4-yloxy)phenyl]-3-(2-phenylsulfanylacetyl)urea] | 1010
9 | COc1cc2nccc(Oc3ccc(NC(=S)NC(=O)CC4CCC(C)CC4)c(F)c3)c2cc1OC (stereo not shown) [Example 191, 1-[4-(6,7-dimethoxyquinolin-4-yloxy)-2-fluorophenyl]-3-[2-(4-methyl-cyclohexyl)acetyl]thiourea] | 977
10 | COc1cc2nccc(Oc3ccc(NC(=O)NC(=O)Nc4ccc(CC#N)cc4)cc3)c2cc1OC [Example 241, N-[4-(cyanomethyl)phenyl]-({[4-(6,7-dimethoxyquinolin-4-yloxy)anilino]carbonyl}amino)-methanamide] | 3320
11 | COc1cc2nccc(Oc3ccc(NC(=S)NC(=O)Cc4cccc(Cl)c4)c(F)c3)c2cc1OC [Example 172, 1-[2-(3-chlorophenyl)acetyl]-3-[4-(6,7-dimethoxyquinolin-4-yloxy)-2-fluorophenyl]thiourea] | 423
12 | CCCCOCC(=O)NC(=S)Nc1ccc(Oc2ccnc3cc(OC)c(OC)cc23)c(F)c1 [Example 167, 1-(2-butoxyacetyl)-3-[4-(6,7-dimethoxy-quinolin-4-yloxy)-3-fluorophenyl]thiourea] | 259
13 | COc1cc2nccc(Oc3ccc(NC(=O)NC(=O)CN4CCc5ccccc54)cc3F)c2cc1OC [Example 122, 1-[2-(2,3-dihydro-1H-1-indol-1-yl)acetyl]-3-[4-(6,7-dimethoxyquinolin-4-yloxy)-3-fluorophenyl]urea] | 303
14 | COc1cc2nccc(Oc3ccc(NC(=S)NC(=O)CC4CCC(C)CC4)cc3F)c2cc1OC (stereo not shown) [Example 192, 1-[4-(6,7-dimethoxyquinolin-4-yloxy)-3-fluorophenyl]-3-[2-(4-methyl-cyclohexyl)acetyl]thiourea] | 687
15 | COc1cc2nccc(Oc3ccc(NC(=O)NC(=O)CC4C5CCC4CC5)cc3F)c2cc1OC (stereo not shown) [Example 127, 1-(2-bicyclo[2.2.1]hepto-7-ylacetyl)-3-[4-(6,7-dimethoxyquinolin-4-yloxy)-3-fluorophenyl]urea] | 319
16 | COc1cc2nccc(Oc3ccc(NC(=O)C(C)C(=O)Nc4ccccc4)cc3)c2cc1OC (stereo not shown) [Example 225, N-[4-(6,7-dimethoxyquinolin-4-yloxy)phenyl]-2-methyl-N′-phenylmalonamide] | 281

More lines, now with the values ahead:

Row | IC50 [nM] | SMILES
17 | 89 | COc1cc2c(Oc3ccc(NC(=S)NC(=O)Cc4ccccc4F)cc3Cl)ccnc2cc1OCCCN1CCOCC1 [Example 298, 1-{3-Chloro-4-[6-methoxy-7-(3-morpholin-4-yl-propoxy)-quinolin-4-yloxy]-phenyl}-3-[2-(2-fluoro-phenyl)-acetyl]-thiourea]
18 | 23.5 | COc1cc(Oc2ccnc3cc(OC)c(OC)cc23)ccc1NC(=S)NC(=O)Cc1ccsc1 [Example 86, 1-[4-(6,7-dimethoxyquinolin-4-yloxy)-2-methoxyphenyl]-3-(2-thiophen-3-ylacetyl)thiourea]
19 | 171 | COc1cc2nccc(Oc3ccc(NC(=S)NC(=O)Cc4cc(F)ccc4F)c(F)c3)c2cc1OC [Example 96, 1-[2-(2,5-difluorophenyl)acetyl]-3-[4-(6,7-dimethoxyquinolin-4-yloxy)-2-fluorophenyl]thiourea]
20 | 221 | COc1cc2nccc(Oc3ccc(NC(=O)CC(=O)NCCC(C)(C)C)cc3)c2cc1OC [Example 221, N-[4-(6,7-dimethoxyquinolin-4-yloxy)phenyl]-N′-(3,3-dimethyl-butyl)malonamide]
21 | 258 | COc1cc2nccc(Oc3ccc(NC(=S)NC(=O)Cc4ccc(Cl)cc4)cc3)c2cc1OC [Example 187, 1-[2-(4-chlorophenyl)acetyl]-3-[4-(6,7-dimethoxyquinolin-4-yloxy)phenyl]thiourea]
22 | 31.6 | COc1cc2nccc(Oc3ccc(NC(=O)CC(=O)Nc4ccc(F)cc4F)cc3Cl)c2cc1OC [Example 6, N-[3-chloro-4-(6,7-dimethoxyquinolin-4-yloxy)-phenyl]-N′-(2,4-difluorophenyl)malonamide]
23 | 39.1 | COc1ccccc1CC(=O)NC(=S)Nc1ccc(Oc2ccnc3cc(OC)c(OC)cc23)c(F)c1 [Example 83, 1-[4-(6,7-dimethoxyquinolin-4-yloxy)-3-fluoro-phenyl]-3-[2-(2-methoxyphenyl)acetyl]thiourea]
24 | 27.7 | COc1cc2nccc(Oc3ccc(NC(=S)NC(=O)Cc4ccccc4F)cc3F)c2cc1OC [Example 81, 1-[4-(6,7-dimethoxyquinolin-4-yloxy)-3-fluoro-phenyl]-3-[2-(2-fluorophenyl)acetyl]thiourea]
25 | 12.5 | COc1cc2c(Oc3ccc(NC(=O)CC(=O)Nc4ccc(F)cc4)cc3F)ccnc2cc1OCCCN1CCOCC1 [Example 269, N-{3-fluoro-4-[6-methoxy-7-(3-morpholin-4-yl-propoxy)quinolin-4-yloxy]phenyl}-N′-(4-fluorophenyl)-malonamide]
26 | 29.9 | COc1cc2nccc(Oc3ccc(NC(=S)NC(=O)Cc4ccc(F)cc4)cc3)c2cc1OC [Example 71, 1-[4-(6,7-dimethoxyquinolin-4-yloxy)phenyl]-3-[2-(4-fluorophenyl)acetyl]thiourea]
27 | 260 | COc1cc2nccc(Oc3ccc(NC(=O)NC(=O)Nc4ccccc4Oc4ccccc4)cc3)c2cc1OC [Example 255, N-(2-phenoxyphenyl)-({[4-(6,7-dimethoxy-quinolin-4-yloxy)anilino]carbonyl}amino)methanamide]
28 | 222 | COc1cc2nccc(Oc3ccc(NC(=S)NC(=O)Cc4cccc(Cl)c4)cc3F)c2cc1OC [Example 173, 1-[2-(3-chlorophenyl)acetyl]-3-[4-(6,7-dimethoxyquinolin-4-yloxy)-3-fluorophenyl]thiourea]
29 | 22 | COc1cc2c(Oc3ccc(NC(=O)NC(=O)Cc4ccccc4)cc3F)ccnc2cc1OCC(O)CN1CCOCC1 (stereo not shown) [Example 337, 1-{3-Fluoro-4-[7-(2-hydroxy-3-morpholin-1-yl-propoxy)-6-methoxy-quinolin-4-yloxy]-phenyl}-3-(2-phenyl-acetyl)-urea]
30 | 19.7 | COc1cc2nccc(Oc3ccc(NC(=S)NC(=O)Cc4ccccc4)cc3C)c2cc1OC [Example 67, 1-[4-(6,7-dimethoxyquinolin-4-yloxy)-3-methyl-phenyl]-3-phenylacetylthiourea]
31 | 228 | COc1cc2nccc(Oc3ccc(NC(=O)CC(=O)Nc4cccc(Cl)c4)cc3)c2cc1OC [Example 210, N-(3-chlorophenyl)-N′-[4-(6,7-dimethoxy-quinolin-4-yloxy)phenyl]malonamide]
32 | 75 | COc1cc2nccc(Oc3ccc(NC(=O)NC(=O)Cc4ccccc4)cc3)c2cc1OC [Example 4, 1-[4-(6,7-dimethoxyquinolin-4-yloxy)phenyl]-3-phenyl-acetylurea]
33 | 201 | COc1cc2nccc(Oc3ccc(NC(=O)CC(=O)Nc4ccc(F)cc4F)c(Cl)c3)c2cc1OC [Example 222, N-[2-chloro-4-(6,7-dimethoxyquinolin-4-yloxy)phenyl]-N′-(2,4-difluorophenyl)malonamide]
34 | 43.2 | COc1cc2c(Oc3ccc(NC(=S)NC(=O)Cc4ccc(Cl)cc4)cc3F)ccnc2cc1OCC(O)CN1CCCC1 (stereo not shown) [Example 328, 1-[2-(4-Chloro-phenyl)-acetyl]-3-{3-fluoro-4-[7-(2-hydroxy-3-pyrrolidin-1-yl-propoxy)-6-methoxy-quinolin-4-yloxy]-phenyl}-thiourea]
35 | 33.9 | COc1cc2c(Oc3ccc(NC(=O)NC(=O)Cc4ccccc4F)cc3F)ccnc2cc1OCCCn1ccnc1 [Example 306, 1-{3-Fluoro-4-[7-(3-imidazol-1-yl-propoxy)-6-methoxy-quinolin-4-yloxy]-phenyl}-3-[2-(2-fluoro-phenyl)-acetyl]-urea]
36 | 49.2 | COc1cc2nccc(Oc3ccc(NC(=S)NC(=O)CC4C5CCC4CC5)cc3)c2cc1OC (stereo not shown) [Example 88, 1-(2-bicyclo[2.2.1]hepto-7-ylacetyl)-3-[4-(6,7-dimethoxyquinolin-4-yloxy)phenyl]thiourea]
37 | 256 | COc1cc2nccc(Oc3ccc(NC(=S)NC(=O)Cc4ccccc4F)cc3)c2cc1OC [Example 151, 1-[4-(6,7-dimethoxyquinolin-4-yloxy)phenyl]-3-[2-(2-fluorophenyl)acetyl]thiourea]
